{"source": "patent US7666843B2", "about": "“Methods and compositions for treatment of neurological disorder” (Children's Medical Center Corporation, priority 2002, dated 2010)", "type_in_all_cases": "cell-based", "key": {"[1]": {"test_system": "goldfish retinal ganglion cells", "assay": "Goldfish retinal ganglion cell culture, axon outgrowth bioassay", "conditions": "goldfish RGCs; for effect on axon growth induced by AF-1: 6-TG 20 μM, NBTI 20 μM, H89 5 μM, FIG. 2, 4; for effect on axon growth induced by AF-1 / axon growth induced by cAMP-elevating agent on its own: Sp-cAMPs 150 μM; for axon growth induced by cAMP-elevating agent on its own: FIG. 4; for axon outgrowth in response to monosaccharides: sugar alone, 50 or 100 μM, D-configuration, FIG. 7a", "protocol": "Goldfish retinal ganglion cells are prepared as described in PCT application serial no. PCT/US98/03001, the contents of which are incorporated herein by reference, and contacted with a hexose derivative such as mannose. The ability of the hexose derivative to stimulate axonal outgrowth from the goldfish retinal ganglion cells is monitored as described in PCT application serial no. PCT/US98/03001.\nGoldfish retinal ganglion cell cultures. Mammalian AF-1 was initially characterized in bioassays using dissociated goldfish retinal ganglion cells (RGCs). In brief, Comet variety goldfish (Mt. Parnell Fisheries, PA) were dark-adapted, cooled to 4° C., and killed by cervical transection. Retinas were dissected and dissociated by incubation in papain followed by a series of trituration steps that result in an RGC-enriched cell suspension (Schwartz & Agronoff,; Schwalb et al., 1995). Approximately 500 RGCs per well were plated together with the experimental samples to be tested in defined, serum-free media containing Leibovitz' L15 media (Gibco BRL) plus N1 and N2 supplements (Bottenstein, Saito), antioxidants, and bovine serum albumin as described in detail elsewhere (Schwalb et al., 1995). In each experiment, 4 wells of each sample were distributed in 24-well plates in a blinded fashion so that the person evaluating axon outgrowth was unaware of the type of sample present in each well. Experiments included a positive control (previously validated goldfish AF-1 or inosine) and a negative control (defined media alone), likewise distributed on the plate in quadruplicate in a blinded fashion. After 6 days in culture at 21° C., axon outgrowth, operationally defined as the percent of RGCs that extended an axon≧5 cell diameters in length, was evaluated in approximately 150 consecutively encountered RGCs per well. […] Data are presented as normalized means ± SEM. All experiments were repeated at least 3 times."}, "[2]": {"test_system": "goldfish retinal ganglion cells", "assay": "Goldfish retinal ganglion cell culture, cell survival", "conditions": "MH 10 mM, sugars at low micromolar concentrations", "protocol": "Goldfish retinal ganglion cell cultures. Mammalian AF-1 was initially characterized in bioassays using dissociated goldfish retinal ganglion cells (RGCs). In brief, Comet variety goldfish (Mt. Parnell Fisheries, PA) were dark-adapted, cooled to 4° C., and killed by cervical transection. Retinas were dissected and dissociated by incubation in papain followed by a series of trituration steps that result in an RGC-enriched cell suspension (Schwartz & Agronoff,; Schwalb et al., 1995). Approximately 500 RGCs per well were plated together with the experimental samples to be tested in defined, serum-free media containing Leibovitz' L15 media (Gibco BRL) plus N1 and N2 supplements (Bottenstein, Saito), antioxidants, and bovine serum albumin as described in detail elsewhere (Schwalb et al., 1995). In each experiment, 4 wells of each sample were distributed in 24-well plates in a blinded fashion so that the person evaluating axon outgrowth was unaware of the type of sample present in each well. Experiments included a positive control (previously validated goldfish AF-1 or inosine) and a negative control (defined media alone), likewise distributed on the plate in quadruplicate in a blinded fashion. After 6 days in culture at 21° C., axon outgrowth, operationally defined as the percent of RGCs that extended an axon≧5 cell diameters in length, was evaluated in approximately 150 consecutively encountered RGCs per well. Data were analyzed by averaging axon growth in the 4 wells for each sample, subtracting the level of growth found in negative controls (typically 3-5%), and normalizing by the net growth in positive controls (usually 20-40%). Data are presented as normalized means ± SEM. All experiments were repeated at least 3 times."}, "[3]": {"test_system": "rat retinal ganglion cells", "assay": "Rat retinal ganglion cell culture, axon outgrowth", "conditions": "rat RGCs; for axon outgrowth, agent by itself: 3 days, no other factor added, forskolin 5 μM in FIG. 9a; for effect on axon growth induced by the low molecular weight vitreous factor (VE<3): FIG. 3a; for axon outgrowth in the presence of forskolin: compared to forskolin alone, glucose up to 5 mM, mannose-6-phosphate up to 10 mM, 9c", "from_the_text": "(§1) Rat retinal ganglion cell cultures. Retinal ganglion cells were identified by retrograde labeling with Fluorogold (FG: Fluorochrome, Inc.). […] After allowing 7 days for FG to be retrogradely transported up the optic nerve, rats were killed, eyes were removed, and the retinas dissected. Retinas were dissociated with papain treatment followed by trituration. Mixed cultures containing 100-150 FG-labeled RGCs per well were maintained in 24 well plates in a defined, serum-free media (Minimal Essential Media containing NaHCO3,) at 37° C. at 5% CO2 for 3 days."}, "[4]": {"test_system": "rat retinal ganglion cells", "assay": "Rat retinal ganglion cell culture, cell survival", "from_the_text": "as §1"}}, "note": "Entries after “also recorded” stand apart in the source; their conditions may differ. Like-named read-outs stand apart in the source and are kept apart here."}
{"smiles": "O=C(CO)[C@@H](O)[C@@H](O)[C@H](O)[C@H](O)CO", "note": "[MH, mannoheptulose]", "values": [{"measurement": "effect on mannose-induced axon outgrowth", "setting": "[1]; KT5720 1 μM, MH 10 mM, dBcAMP, late fraction with 50 μM mannose", "result": "had no effect on outgrowth induced by glucose or mannose; also recorded: has no effect on outgrowth induced by glucose or mannose"}, {"measurement": "effect on glucose-induced axon outgrowth", "setting": "[1]; glucose 10 μM (50 μM with late fraction), dBcAMP 1 mM, forskolin 10 μM, Rp-cAMPs 100 μM, 3-O-MG 100:1, 2-DG 1 mM, MH 10 mM", "result": "had no effect on outgrowth induced by glucose or mannose; also recorded: has no effect on outgrowth induced by glucose or mannose"}, {"measurement": "cell survival (viable RGCs per field)", "setting": "[2]", "result": "detrimental to cell survival; also recorded: decreases cell survival"}]}
{"smiles": "Nc1ncnc2c1ncn2[C@@H]1O[C@@H]2COP(O)(=S)O[C@H]2[C@H]1O", "note": "(stereo partly shown) [Sp-cAMPs]", "values": [{"measurement": "effect on axon growth induced by AF-1", "setting": "[1]; forskolin 10 μM, Rp-cAMPs 100 μM", "result": "non-statistically significant decrease in outgrowth"}, {"measurement": "effect on axon growth induced by AF-1", "setting": "[1]; forskolin 10 μM, Rp-cAMPs 100 μM, listed as Sp-cAMP-s", "result": "not enhanced; also recorded: reduced the level of outgrowth"}, {"measurement": "axon growth induced by cAMP-elevating agent on its own", "setting": "[1]; forskolin 10 μM", "result": "Neither forskolin (10 μM) nor Sp-cAMPs (150 μM) induced growth on its own"}, {"measurement": "axon growth induced by cAMP-elevating agent on its own", "setting": "[1]; forskolin 10 μM, listed as Sp-cAMP-s", "result": "Neither forskolin nor Sp-cAMP-s by itself stimulated axon growth"}, {"measurement": "axon outgrowth, agent by itself", "setting": "[3]", "result": "little effect on outgrowth"}, {"measurement": "effect on axon growth induced by the low molecular weight vitreous factor (VE<3)", "setting": "[3]", "result": "greatly potentiated"}, {"measurement": "effect on axon growth induced by the low molecular weight vitreous factor (VE<3)", "setting": "[3]; listed as Sp-cAMP-s", "result": "strongly potentiates"}]}
{"smiles": "O=C[C@H](O)[C@@H](O)[C@H](O)[C@H](O)CO", "note": "[glucose, D-glucose]", "values": [{"measurement": "axon outgrowth in response to monosaccharides", "setting": "[1]", "result": "stimulated as much outgrowth as the low molecular weight factor; also recorded: induced axon growth"}, {"measurement": "level of axon growth relative to that seen with the vitreous extract", "setting": "[1]; sugar by itself, FIG. 7d", "result": "about 70%"}, {"measurement": "cell survival (viable RGCs per field)", "setting": "[2]", "result": "no effect on cell survival; also recorded: not related to any changes in cell survival"}, {"measurement": "axon outgrowth in the presence of forskolin", "setting": "[3]; with forskolin, FIG. 9a", "result": "failed to induce growth above the level of forskolin alone; also recorded: no effect whatsoever"}, {"measurement": "axon outgrowth in the presence of forskolin", "setting": "[3]; with forskolin, FIG. 9a, listed as Glucose", "result": "inactive"}, {"measurement": "effect of added glucose on mannose-induced growth", "setting": "[3]; with forskolin, high concentrations of glucose, FIG. 9a", "result": "not augmented further; also recorded: not altered"}]}
{"smiles": "O=C[C@@H](O)[C@@H](O)[C@H](O)[C@H](O)CO", "note": "[mannose, D-mannose]", "values": [{"measurement": "EC50", "setting": "[1]; Carassius auratus, FIG. 7c, read-out: ED50 of axon outgrowth", "result": "~10", "unit": "µM"}, {"measurement": "concentration at which the effect on axon outgrowth saturates", "setting": "[1]; FIG. 7c", "result": "25 to 50", "unit": "µM"}, {"measurement": "axon outgrowth in response to monosaccharides", "setting": "[1]", "result": "stimulated as much outgrowth as the low molecular weight factor; also recorded: induced axon growth"}, {"measurement": "cell survival (viable RGCs per field)", "setting": "[4]", "result": "not related to cell survival; also recorded: independent of any changes in cell survival"}, {"measurement": "cell survival (viable RGCs per field)", "setting": "[4]; listed as D-mannose", "result": "unrelated to changes in cell survival"}, {"measurement": "cell survival (viable RGCs per field)", "setting": "[2]", "result": "no effect on cell survival; also recorded: not related to any changes in cell survival"}, {"measurement": "axon outgrowth, agent by itself", "setting": "[3]", "result": "marginally significant response"}, {"measurement": "axon outgrowth, agent by itself", "setting": "[3]; listed as D-mannose", "result": "little effect"}, {"measurement": "axon outgrowth, agent by itself", "setting": "[3]; listed as Mannose", "result": "small, marginally significant level of outgrowth"}, {"measurement": "increase of axon outgrowth over baseline", "setting": "[3]; in the presence of forskolin", "result": 3, "unit": "fold"}, {"measurement": "EC50", "setting": "[3]; in the presence of forskolin, data not shown, read-out: ED50 of axon outgrowth", "result": "~10", "unit": "µM"}, {"measurement": "axon outgrowth in the presence of forskolin", "setting": "[3]; with forskolin, FIG. 9a", "result": "more than doubled the level axon growth induced by forskolin alone; also recorded: striking increase in outgrowth; also recorded: respond strongly"}]}
